Results on eight compounds are retold here after patent publication US9340590B2 (priority 2011, dated 2016).

Common to all, as to experiment: cell-based
The target in experiment [1] is hNav1.7 (Homo sapiens, UniProt Q15858). The experiment is classed as cell-based. The settings on record: Table 22; IonWorks Quattro, use; […]; read-out: IWQ Use Nav1.7. On the technique in general: Patch clamp records ionic current or voltage across a cell membrane.
The target in experiment [2] is hNav1.5 (Homo sapiens, UniProt Q14524). To be noted: Table 22; IonWorks Quattro, use; […]; read-out: IWQ Use Nav1.5.
The target of experiment [3] is hNav1.3 (Homo sapiens, UniProt Q9NY46). To be noted: Table 22; IonWorks Quattro, use; […]; read-out: IWQ Use Nav1.3.
Sequence of hNav1.3 (Q9NY46 whole entry, looked up): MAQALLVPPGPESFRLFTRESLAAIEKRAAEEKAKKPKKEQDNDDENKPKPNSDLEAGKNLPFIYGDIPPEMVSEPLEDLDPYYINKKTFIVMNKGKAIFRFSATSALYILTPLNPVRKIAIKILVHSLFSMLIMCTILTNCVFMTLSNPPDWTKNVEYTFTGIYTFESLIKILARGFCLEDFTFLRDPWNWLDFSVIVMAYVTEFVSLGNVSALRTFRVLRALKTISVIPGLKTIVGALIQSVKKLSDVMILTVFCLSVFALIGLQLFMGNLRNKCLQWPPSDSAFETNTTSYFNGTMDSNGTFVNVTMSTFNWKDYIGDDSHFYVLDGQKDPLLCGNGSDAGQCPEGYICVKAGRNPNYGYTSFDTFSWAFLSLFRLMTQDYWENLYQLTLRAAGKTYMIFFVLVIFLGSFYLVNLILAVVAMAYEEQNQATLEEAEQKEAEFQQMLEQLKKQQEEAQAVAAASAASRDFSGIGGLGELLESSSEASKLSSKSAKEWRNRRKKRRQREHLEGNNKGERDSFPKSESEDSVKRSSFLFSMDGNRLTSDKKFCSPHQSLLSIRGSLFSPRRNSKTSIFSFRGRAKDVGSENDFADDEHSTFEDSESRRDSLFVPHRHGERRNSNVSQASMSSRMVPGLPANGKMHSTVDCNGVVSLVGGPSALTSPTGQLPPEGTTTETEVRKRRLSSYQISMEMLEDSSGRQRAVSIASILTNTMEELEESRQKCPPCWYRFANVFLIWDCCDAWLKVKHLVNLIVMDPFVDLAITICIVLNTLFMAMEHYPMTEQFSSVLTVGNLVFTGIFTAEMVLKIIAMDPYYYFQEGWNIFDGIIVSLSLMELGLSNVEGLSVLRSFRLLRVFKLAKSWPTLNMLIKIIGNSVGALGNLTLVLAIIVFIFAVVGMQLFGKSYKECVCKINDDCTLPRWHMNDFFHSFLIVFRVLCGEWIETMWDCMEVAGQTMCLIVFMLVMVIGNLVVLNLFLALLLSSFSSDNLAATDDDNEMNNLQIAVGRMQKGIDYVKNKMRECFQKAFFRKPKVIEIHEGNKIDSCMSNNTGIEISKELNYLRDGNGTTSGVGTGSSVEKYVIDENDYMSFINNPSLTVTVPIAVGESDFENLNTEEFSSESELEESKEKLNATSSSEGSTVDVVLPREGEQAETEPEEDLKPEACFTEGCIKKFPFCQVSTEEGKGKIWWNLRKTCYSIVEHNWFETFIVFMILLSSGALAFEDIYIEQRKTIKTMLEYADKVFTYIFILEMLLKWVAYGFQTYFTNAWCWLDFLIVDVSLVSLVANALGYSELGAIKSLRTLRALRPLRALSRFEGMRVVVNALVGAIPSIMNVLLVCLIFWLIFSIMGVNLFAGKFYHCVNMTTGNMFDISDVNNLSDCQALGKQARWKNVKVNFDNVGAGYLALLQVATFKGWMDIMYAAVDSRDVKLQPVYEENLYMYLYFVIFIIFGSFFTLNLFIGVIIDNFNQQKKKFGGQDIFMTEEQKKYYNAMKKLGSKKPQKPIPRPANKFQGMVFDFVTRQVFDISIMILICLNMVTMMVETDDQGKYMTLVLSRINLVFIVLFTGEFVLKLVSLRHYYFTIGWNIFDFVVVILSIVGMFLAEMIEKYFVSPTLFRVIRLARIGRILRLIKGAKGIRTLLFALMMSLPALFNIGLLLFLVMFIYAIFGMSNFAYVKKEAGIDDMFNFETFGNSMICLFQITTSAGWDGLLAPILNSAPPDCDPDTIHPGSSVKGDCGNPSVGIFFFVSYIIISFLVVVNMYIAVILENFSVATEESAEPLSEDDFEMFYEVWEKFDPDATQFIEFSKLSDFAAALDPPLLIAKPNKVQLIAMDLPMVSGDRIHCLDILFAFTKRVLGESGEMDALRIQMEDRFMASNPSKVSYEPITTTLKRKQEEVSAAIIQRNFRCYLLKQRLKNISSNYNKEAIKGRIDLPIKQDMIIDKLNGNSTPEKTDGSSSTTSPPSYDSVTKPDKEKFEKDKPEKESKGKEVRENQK

Positions of bridges follow the written chain, without caps; N, C: chain ends. Non-standard residues stand in square brackets, D forms with d. Residues, ends and D or L forms follow the SMILES beside them. 2Pal = N[C@@H](Cc1ccccn1)C(=O)O

Sequence of hNav1.7 (Q15858 whole entry, looked up): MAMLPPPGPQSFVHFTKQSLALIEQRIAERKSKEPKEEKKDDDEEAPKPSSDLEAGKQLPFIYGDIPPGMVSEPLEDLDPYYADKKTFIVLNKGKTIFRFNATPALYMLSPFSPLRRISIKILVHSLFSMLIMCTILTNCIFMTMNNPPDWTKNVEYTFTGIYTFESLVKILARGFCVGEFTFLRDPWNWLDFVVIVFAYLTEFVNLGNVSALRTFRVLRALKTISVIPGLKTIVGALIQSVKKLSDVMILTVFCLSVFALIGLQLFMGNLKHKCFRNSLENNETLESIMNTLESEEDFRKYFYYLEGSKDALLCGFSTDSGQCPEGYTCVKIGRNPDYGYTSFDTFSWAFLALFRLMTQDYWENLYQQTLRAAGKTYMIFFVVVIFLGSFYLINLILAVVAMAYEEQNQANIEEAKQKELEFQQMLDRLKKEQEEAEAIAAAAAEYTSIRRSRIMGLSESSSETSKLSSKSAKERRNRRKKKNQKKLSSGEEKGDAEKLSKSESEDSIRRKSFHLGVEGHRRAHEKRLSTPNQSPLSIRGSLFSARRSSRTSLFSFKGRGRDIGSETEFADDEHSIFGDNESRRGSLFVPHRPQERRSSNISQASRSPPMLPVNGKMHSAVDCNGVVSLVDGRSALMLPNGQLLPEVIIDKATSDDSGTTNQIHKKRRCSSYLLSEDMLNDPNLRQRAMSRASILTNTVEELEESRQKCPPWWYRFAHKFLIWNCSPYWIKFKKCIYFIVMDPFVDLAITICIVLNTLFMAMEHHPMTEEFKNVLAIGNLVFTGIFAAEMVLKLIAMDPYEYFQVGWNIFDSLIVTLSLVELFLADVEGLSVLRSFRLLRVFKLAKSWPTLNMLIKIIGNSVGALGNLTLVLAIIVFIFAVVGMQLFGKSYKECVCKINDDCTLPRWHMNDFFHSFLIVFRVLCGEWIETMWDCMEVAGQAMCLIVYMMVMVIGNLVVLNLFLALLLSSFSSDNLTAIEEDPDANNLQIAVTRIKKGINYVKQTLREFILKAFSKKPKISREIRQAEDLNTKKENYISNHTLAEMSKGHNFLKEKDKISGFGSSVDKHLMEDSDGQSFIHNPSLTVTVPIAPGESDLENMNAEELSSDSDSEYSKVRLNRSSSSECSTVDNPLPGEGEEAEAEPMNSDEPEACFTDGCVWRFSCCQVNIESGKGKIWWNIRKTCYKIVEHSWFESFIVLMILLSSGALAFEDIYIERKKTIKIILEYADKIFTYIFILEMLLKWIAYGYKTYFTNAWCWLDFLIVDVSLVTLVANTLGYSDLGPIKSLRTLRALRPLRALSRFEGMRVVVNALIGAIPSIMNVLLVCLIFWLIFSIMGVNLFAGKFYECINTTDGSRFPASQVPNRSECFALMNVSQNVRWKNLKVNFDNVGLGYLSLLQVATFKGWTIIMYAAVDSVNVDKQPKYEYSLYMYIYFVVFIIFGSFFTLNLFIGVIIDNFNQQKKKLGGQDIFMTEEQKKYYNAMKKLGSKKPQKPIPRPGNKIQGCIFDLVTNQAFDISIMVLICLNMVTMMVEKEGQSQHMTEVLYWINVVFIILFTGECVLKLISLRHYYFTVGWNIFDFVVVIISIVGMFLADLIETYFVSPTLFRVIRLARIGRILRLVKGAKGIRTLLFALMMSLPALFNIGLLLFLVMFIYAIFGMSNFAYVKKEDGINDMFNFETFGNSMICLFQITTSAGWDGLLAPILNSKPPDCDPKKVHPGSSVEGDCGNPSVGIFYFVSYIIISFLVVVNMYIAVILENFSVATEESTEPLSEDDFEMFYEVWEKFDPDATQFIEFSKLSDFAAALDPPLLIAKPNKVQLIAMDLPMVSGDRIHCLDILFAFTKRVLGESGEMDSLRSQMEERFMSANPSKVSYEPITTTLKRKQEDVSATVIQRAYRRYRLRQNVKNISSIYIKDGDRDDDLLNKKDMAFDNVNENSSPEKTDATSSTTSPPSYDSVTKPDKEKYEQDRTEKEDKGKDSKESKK

Regarding `CC[C@H](C)[C@@H]1NC(=O)[C@@H]2CSSC[C@@H]3NC(=O)[C@H](C(C)C)NC(=O)[C@H](CC(C)C)NC(=O)[C@H](CC(N)=O)NC(=O)[C@@H]4CCCN4C(=O)[C@H](CCCNC(=N)N)NC(=O)[C@H](CSSC[C@H](NC(=O)[C@@H](N)CC(=O)O)C(=O)N[C@@H](CC(C)C)C(=O)NCC(=O)N[C@@H](Cc4ccccc4)C(=O)N[C@@H](CCSC)C(=O)N[C@@H](CCCNC(=N)N)C(=O)N[C@@H](CCCCN)C(=O)N2)NC(=O)[C@H](CSSC[C@@H](C(=O)N[C@@H](CCCCN)C(=O)N[C@@H](Cc2ccc(O)cc2)C(=O)N[C@H](C(=O)N[C@@H](Cc2ccccc2)C(N)=O)C(C)C)NC(=O)[C@H](Cc2c[nH]c4ccccc24)NC(=O)[C@H](CCCCN)NC(=O)[C@H](Cc2c[nH]cn2)NC(=O)[C@H](CC(N)=O)NC(=O)[C@H](CCCNC(=N)N)NC(=O)[C@H](CO)NC3=O)NC(=O)[C@H](CCCCN)NC(=O)[C@H](CC(=O)O)NC(=O)[C@H](CC(N)=O)NC(=O)[C@H](CC(=O)O)NC(=O)[C@@H]2CCCN2C1=O` [compound 342] (H-DCLGFMRKCIPDNDKCCRPNLVCSRNHKWCKYVF-NH2; disulfide 2-17, 9-23, 16-30), the values for the IC50 in experiment [1], in experiment [2] and in experiment [3] were 90 nM, 6290 nM and 100 nM, respectively.
As for `CC[C@H](C)[C@@H]1NC(=O)[C@@H]2CSSC[C@@H]3NC(=O)[C@H](C(C)C)NC(=O)[C@H](CC(C)C)NC(=O)[C@H](CC(N)=O)NC(=O)[C@@H]4CCCN4C(=O)[C@H](CCCNC(=N)N)NC(=O)[C@H](CSSC[C@H](NC(=O)[C@@H](N)CC(=O)O)C(=O)N[C@@H](CC(C)C)C(=O)NCC(=O)N[C@@H](Cc4ccccc4)C(=O)N[C@@H](CCSC)C(=O)N[C@@H](CCCNC(=N)N)C(=O)N[C@@H](CCCCN)C(=O)N2)NC(=O)[C@H](CSSC[C@@H](C(=O)N[C@@H](CCCCN)C(=O)N[C@@H](Cc2ccc(O)cc2)C(=O)N[C@H](C(=O)N[C@@H](Cc2ccccc2)C(N)=O)C(C)C)NC(=O)[C@H](Cc2c[nH]c4ccccc24)NC(=O)[C@H](CCCCN)NC(=O)[C@H](Cc2c[nH]cn2)NC(=O)CNC(=O)[C@H](CCCNC(=N)N)NC(=O)[C@H](CO)NC3=O)NC(=O)[C@H](CCCCN)NC(=O)[C@H](CC(=O)O)NC(=O)[C@H](CC(N)=O)NC(=O)[C@H](CC(=O)O)NC(=O)[C@@H]2CCCN2C1=O` [compound 343] (H-DCLGFMRKCIPDNDKCCRPNLVCSRGHKWCKYVF-NH2; disulfide 2-17, 9-23, 16-30), the values for the IC50 in experiment [1], in experiment [2] and in experiment [3] were 100 nM, 4070 nM and 90 nM, respectively.
As for `CC[C@H](C)[C@@H]1NC(=O)[C@@H]2CSSC[C@@H]3NC(=O)[C@H](C(C)C)NC(=O)[C@H](CC(C)C)NC(=O)[C@H](CC(N)=O)NC(=O)[C@@H]4CCCN4C(=O)[C@H](CCCNC(=N)N)NC(=O)[C@H](CSSC[C@H](NC(=O)[C@@H](N)CC(=O)O)C(=O)N[C@@H](CC(C)C)C(=O)NCC(=O)N[C@@H](Cc4ccccc4)C(=O)N[C@@H](CCSC)C(=O)N[C@@H](CCCNC(=N)N)C(=O)N[C@@H](CCCCN)C(=O)N2)NC(=O)[C@H](CSSC[C@@H](C(=O)N[C@@H](CCCCN)C(=O)N[C@@H](Cc2ccc(O)cc2)C(=O)N[C@H](C(=O)N[C@@H](Cc2ccccc2)C(N)=O)C(C)C)NC(=O)[C@H](Cc2c[nH]c4ccccc24)NC(=O)[C@H](CCCCN)NC(=O)[C@H](Cc2c[nH]cn2)NC(=O)[C@H](C(C)C)NC(=O)[C@H](CCCNC(=N)N)NC(=O)[C@H](CO)NC3=O)NC(=O)[C@H](CCCCN)NC(=O)[C@H](CC(=O)O)NC(=O)[C@H](CC(N)=O)NC(=O)[C@H](CC(=O)O)NC(=O)[C@@H]2CCCN2C1=O` [compound 344] (H-DCLGFMRKCIPDNDKCCRPNLVCSRVHKWCKYVF-NH2; disulfide 2-17, 9-23, 16-30), the IC50 in experiment [1] is 60 nM; in experiment [2], 8930 nM; in experiment [3] it was 40 nM.
The like results for `CC[C@H](C)[C@@H]1NC(=O)[C@@H]2CSSC[C@@H]3NC(=O)[C@H](C(C)C)NC(=O)[C@H](CC(C)C)NC(=O)[C@H](CC(N)=O)NC(=O)[C@@H]4CCCN4C(=O)[C@H](CCCNC(=N)N)NC(=O)[C@H](CSSC[C@H](NC(=O)[C@@H](N)CC(=O)O)C(=O)N[C@@H](CC(C)C)C(=O)NCC(=O)N[C@@H](Cc4ccccc4)C(=O)N[C@@H](CCSC)C(=O)N[C@@H](CCCNC(=N)N)C(=O)N[C@@H](CCCCN)C(=O)N2)NC(=O)[C@H](CSSC[C@@H](C(=O)N[C@@H](CCCCN)C(=O)N[C@@H](Cc2ccc(O)cc2)C(=O)N[C@H](C(=O)N[C@@H](Cc2ccccc2)C(N)=O)C(C)C)NC(=O)[C@H](Cc2c[nH]c4ccccc24)NC(=O)[C@H](CCCCN)NC(=O)[C@H](Cc2c[nH]cn2)NC(=O)[C@@H]2CCCN2C(=O)[C@H](CCCNC(=N)N)NC(=O)[C@H](CO)NC3=O)NC(=O)[C@H](CCCCN)NC(=O)[C@H](CC(=O)O)NC(=O)[C@H](CC(N)=O)NC(=O)[C@H](CC(=O)O)NC(=O)[C@@H]2CCCN2C1=O` [compound 345] (H-DCLGFMRKCIPDNDKCCRPNLVCSRPHKWCKYVF-NH2; disulfide 2-17, 9-23, 16-30) were, in that order, 180 nM, 6650 nM and 160 nM.
In the case of `CC[C@H](C)[C@@H]1NC(=O)[C@@H]2CSSC[C@@H]3NC(=O)[C@H](C(C)C)NC(=O)[C@H](CC(C)C)NC(=O)[C@H](CC(N)=O)NC(=O)[C@@H]4CCCN4C(=O)[C@H](CCCNC(=N)N)NC(=O)[C@H](CSSC[C@H](NC(=O)[C@@H](N)CC(=O)O)C(=O)N[C@@H](CC(C)C)C(=O)NCC(=O)N[C@@H](Cc4ccccc4)C(=O)N[C@@H](CCSC)C(=O)N[C@@H](CCCNC(=N)N)C(=O)N[C@@H](CCCCN)C(=O)N2)NC(=O)[C@H](CSSC[C@@H](C(=O)N[C@@H](CCCCN)C(=O)N[C@@H](Cc2ccc(O)cc2)C(=O)N[C@H](C(=O)N[C@@H](Cc2ccccc2)C(N)=O)C(C)C)NC(=O)[C@H](Cc2c[nH]c4ccccc24)NC(=O)[C@H](CCCCN)NC(=O)[C@H](Cc2c[nH]cn2)NC(=O)[C@H](CCSC)NC(=O)[C@H](CCCNC(=N)N)NC(=O)[C@H](CO)NC3=O)NC(=O)[C@H](CCCCN)NC(=O)[C@H](CC(=O)O)NC(=O)[C@H](CC(N)=O)NC(=O)[C@H](CC(=O)O)NC(=O)[C@@H]2CCCN2C1=O` [compound 346] (H-DCLGFMRKCIPDNDKCCRPNLVCSRMHKWCKYVF-NH2; disulfide 2-17, 9-23, 16-30), the values for the IC50 in experiment [1], in experiment [2] and in experiment [3] were 40 nM, 4240 nM and 20 nM, respectively.
For `CC[C@H](C)[C@@H]1NC(=O)[C@@H]2CSSC[C@@H]3NC(=O)[C@H](C(C)C)NC(=O)[C@H](CC(C)C)NC(=O)[C@H](CC(N)=O)NC(=O)[C@@H]4CCCN4C(=O)[C@H](CCCNC(=N)N)NC(=O)[C@H](CSSC[C@H](NC(=O)[C@@H](N)CC(=O)O)C(=O)N[C@@H](CC(C)C)C(=O)NCC(=O)N[C@@H](Cc4ccccc4)C(=O)N[C@@H](CCSC)C(=O)N[C@@H](CCCNC(=N)N)C(=O)N[C@@H](CCCCN)C(=O)N2)NC(=O)[C@H](CSSC[C@@H](C(=O)N[C@@H](CCCCN)C(=O)N[C@@H](Cc2ccc(O)cc2)C(=O)N[C@H](C(=O)N[C@@H](Cc2ccccc2)C(N)=O)C(C)C)NC(=O)[C@H](Cc2c[nH]c4ccccc24)NC(=O)[C@H](CCCCN)NC(=O)[C@H](Cc2c[nH]cn2)NC(=O)[C@H](CC(=O)O)NC(=O)[C@H](CCCNC(=N)N)NC(=O)[C@H](CO)NC3=O)NC(=O)[C@H](CCCCN)NC(=O)[C@H](CC(=O)O)NC(=O)[C@H](CC(N)=O)NC(=O)[C@H](CC(=O)O)NC(=O)[C@@H]2CCCN2C1=O` [compound 347] (H-DCLGFMRKCIPDNDKCCRPNLVCSRDHKWCKYVF-NH2; disulfide 2-17, 9-23, 16-30), the IC50 in experiment [1] amounted to 960 nM; in experiment [2], 14100 nM; in experiment [3] it was 640 nM.
`CC[C@H](C)[C@@H]1NC(=O)[C@H](CCCNC(=N)N)NC(=O)[C@H](CO)NC(=O)[C@@H]2CSSC[C@@H]3NC(=O)[C@H](CCCCN)NC(=O)[C@H](CCCNC(=N)N)NC(=O)[C@H](CCSC)NC(=O)[C@H](Cc4ccccc4)NC(=O)CNC(=O)[C@H](CC(C)C)NC(=O)[C@@H](NC(=O)[C@@H](N)CC(=O)O)CSSC[C@H](NC(=O)[C@H](CSSC[C@@H](C(=O)N[C@@H](CCCCN)C(=O)N[C@@H](Cc4ccc(O)cc4)C(=O)N[C@H](C(=O)N[C@@H](Cc4ccccc4)C(N)=O)C(C)C)NC(=O)[C@H](Cc4c[nH]c5ccccc45)NC(=O)[C@H](CCCCN)NC(=O)[C@H](Cc4c[nH]cn4)NC1=O)NC(=O)[C@H](CCCCN)NC(=O)[C@H](CC(=O)O)NC(=O)[C@H](CC(N)=O)NC(=O)[C@H](CC(=O)O)NC(=O)[C@@H]1CCCN1C(=O)[C@H]([C@@H](C)CC)NC3=O)C(=O)N[C@@H](CCCNC(=N)N)C(=O)N1CCC[C@H]1C(=O)N[C@@H](CC(N)=O)C(=O)N[C@@H](CC(C)C)C(=O)N[C@@H](C(C)C)C(=O)N2` [compound 348] (H-DCLGFMRKCIPDNDKCCRPNLVCSRIHKWCKYVF-NH2; disulfide 2-17, 9-23, 16-30): the IC50 came to 50 nM in experiment [1], 8150 nM in experiment [2] and 30 nM in experiment [3].
Regarding `CC[C@H](C)[C@@H]1NC(=O)[C@@H]2CSSC[C@@H]3NC(=O)[C@H](C(C)C)NC(=O)[C@H](CC(C)C)NC(=O)[C@H](CC(N)=O)NC(=O)[C@@H]4CCCN4C(=O)[C@H](CCCNC(=N)N)NC(=O)[C@H](CSSC[C@H](NC(=O)[C@@H](N)CC(=O)O)C(=O)N[C@@H](CC(C)C)C(=O)NCC(=O)N[C@@H](Cc4ccccc4)C(=O)N[C@@H](CCSC)C(=O)N[C@@H](CCCNC(=N)N)C(=O)N[C@@H](CCCCN)C(=O)N2)NC(=O)[C@H](CSSC[C@@H](C(=O)N[C@@H](CCCCN)C(=O)N[C@@H](Cc2ccc(O)cc2)C(=O)N[C@H](C(=O)N[C@@H](Cc2ccccc2)C(N)=O)C(C)C)NC(=O)[C@H](Cc2c[nH]c4ccccc24)NC(=O)[C@H](CCCCN)NC(=O)[C@H](Cc2c[nH]cn2)NC(=O)[C@H](Cc2ccccn2)NC(=O)[C@H](CCCNC(=N)N)NC(=O)[C@H](CO)NC3=O)NC(=O)[C@H](CCCCN)NC(=O)[C@H](CC(=O)O)NC(=O)[C@H](CC(N)=O)NC(=O)[C@H](CC(=O)O)NC(=O)[C@@H]2CCCN2C1=O` [compound 349] (H-DCLGFMRKCIPDNDKCCRPNLVCSR[2Pal]HKWCKYVF-NH2; disulfide 2-17, 9-23, 16-30), the IC50 in experiment [1] came to 260 nM; in experiment [2], 10600 nM; in experiment [3], 60 nM.
